Here are results for 16 compounds from ChEMBL document CHEMBL3400118, “New approaches to the synthesis of sildenafil analogues and their enzyme inhibitory activity” (Bioorg Med Chem, 2015).

Experiment [1] relates to MCF7. Briefly: Cytotoxicity against human MCF7 cells after 72 hrs using Calcein AM by fluorescence assay. Format: functional, cell-based. The following applies: MCF7, 72 h.
Experiment [2] deals with Carbonic anhydrase 1 (Homo sapiens, UniProt P00915). Briefly: Inhibition of human carbonic anhydrase 1 preincubated for 15 mins by CO2 hydration assay.
For experiment [3], the target named is Carbonic anhydrase 2 (Homo sapiens, UniProt P00918). The experiment can be described thus: Inhibition of human carbonic anhydrase 2 preincubated for 15 mins by CO2 hydration assay.
For experiment [4], the target named is Cyclin-dependent kinase 2/cyclin E1 (Homo sapiens, UniProt P24941). The experiment can be described thus: Inhibition of CDK2/Cyclin E (unknown origin) using histone H1 as substrate by [gamma-33P]ATP assay. It counts as protein-complex assay.
Experiment [5] deals with Tyrosine-protein kinase ABL1 (Homo sapiens, UniProt P00519). Briefly: Inhibition of Abl (unknown origin) using GGEAIYAAPFKK peptide as substrate by [gamma-33P]ATP assay.
Experiment [6] relates to K562. The experiment can be described thus: Cytotoxicity against human K562 cells after 72 hrs using Calcein AM by fluorescence assay. As to conditions: K562, 72 h. Format: functional, cell-based.
Experiment [7] has as its target Carbonic anhydrase 12 (Homo sapiens, UniProt O43570). Briefly: Inhibition of human carbonic anhydrase 12 preincubated for 15 mins by CO2 hydration assay.
Experiment [8] has as its target Carbonic anhydrase 9 (Homo sapiens, UniProt Q16790). The experiment can be described thus: Inhibition of human carbonic anhydrase 9 preincubated for 15 mins by CO2 hydration assay.

Sequence of Tyrosine-protein kinase ABL1 (P00519 whole entry): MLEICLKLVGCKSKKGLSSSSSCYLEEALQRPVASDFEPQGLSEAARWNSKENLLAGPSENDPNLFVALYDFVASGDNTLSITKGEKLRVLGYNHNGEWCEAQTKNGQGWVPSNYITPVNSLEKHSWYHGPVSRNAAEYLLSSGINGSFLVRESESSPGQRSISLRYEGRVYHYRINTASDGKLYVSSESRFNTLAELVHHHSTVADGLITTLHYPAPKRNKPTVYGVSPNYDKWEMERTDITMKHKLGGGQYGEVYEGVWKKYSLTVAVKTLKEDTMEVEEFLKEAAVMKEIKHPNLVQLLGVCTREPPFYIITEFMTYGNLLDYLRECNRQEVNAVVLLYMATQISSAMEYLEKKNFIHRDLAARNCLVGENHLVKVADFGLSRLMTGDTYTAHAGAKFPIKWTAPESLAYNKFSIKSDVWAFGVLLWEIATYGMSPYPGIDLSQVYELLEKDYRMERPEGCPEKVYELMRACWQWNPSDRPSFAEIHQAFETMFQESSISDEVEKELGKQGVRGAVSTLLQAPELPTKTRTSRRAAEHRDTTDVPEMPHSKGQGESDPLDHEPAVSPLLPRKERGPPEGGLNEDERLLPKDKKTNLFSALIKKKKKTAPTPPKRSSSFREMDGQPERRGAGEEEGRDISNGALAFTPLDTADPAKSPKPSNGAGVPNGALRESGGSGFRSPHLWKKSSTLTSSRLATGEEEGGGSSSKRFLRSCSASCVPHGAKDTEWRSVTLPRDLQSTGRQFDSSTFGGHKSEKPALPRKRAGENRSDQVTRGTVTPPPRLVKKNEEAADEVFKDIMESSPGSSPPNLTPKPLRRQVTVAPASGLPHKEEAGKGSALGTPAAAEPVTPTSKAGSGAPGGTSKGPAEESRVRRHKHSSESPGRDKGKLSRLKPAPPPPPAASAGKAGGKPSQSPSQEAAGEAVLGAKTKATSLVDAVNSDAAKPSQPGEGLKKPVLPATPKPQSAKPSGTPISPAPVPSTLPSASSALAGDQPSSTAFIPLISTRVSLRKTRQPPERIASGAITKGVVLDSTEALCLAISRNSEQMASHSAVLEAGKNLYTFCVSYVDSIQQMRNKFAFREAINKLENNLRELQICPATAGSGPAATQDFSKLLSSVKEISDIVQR
Sequence of Carbonic anhydrase 1 (P00915 whole entry): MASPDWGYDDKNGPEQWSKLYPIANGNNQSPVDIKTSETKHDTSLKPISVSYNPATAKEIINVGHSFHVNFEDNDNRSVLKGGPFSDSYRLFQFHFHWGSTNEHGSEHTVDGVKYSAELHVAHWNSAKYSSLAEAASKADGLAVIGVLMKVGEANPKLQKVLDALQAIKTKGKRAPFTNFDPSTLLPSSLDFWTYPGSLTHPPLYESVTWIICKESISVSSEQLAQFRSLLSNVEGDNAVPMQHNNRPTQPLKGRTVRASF
Sequence of Carbonic anhydrase 12 (O43570 whole entry): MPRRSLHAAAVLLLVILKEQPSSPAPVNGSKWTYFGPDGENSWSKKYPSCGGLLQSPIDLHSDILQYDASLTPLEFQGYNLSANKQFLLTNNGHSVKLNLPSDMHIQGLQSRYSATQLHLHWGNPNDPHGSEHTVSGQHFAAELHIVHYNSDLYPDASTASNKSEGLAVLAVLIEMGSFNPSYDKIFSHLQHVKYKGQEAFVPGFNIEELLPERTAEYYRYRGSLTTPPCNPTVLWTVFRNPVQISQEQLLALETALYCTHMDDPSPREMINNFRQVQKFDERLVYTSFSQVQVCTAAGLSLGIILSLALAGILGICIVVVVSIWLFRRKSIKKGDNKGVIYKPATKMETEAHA

With `CCOc1ccc(S(=O)(=O)N2CCCNCC2)cc1-c1nnc2c(n1)c(C)nn2C`, the half-inhibitory concentration (IC50) (usually the concentration that inhibits the measured activity by half) in experiment [1] is > 25 µM; in experiment [4] it was 44.3 µM; in experiment [5] it was 5.9 µM; in experiment [6] it was > 25 µM. Besides, the Ki (in general, a measure of affinity in units of concentration, obtained from inhibition or displacement) in experiment [2] was > 10 µM; in experiment [3], > 10 µM; in experiment [7], 0.667 µM; in experiment [8] it was 0.0309 µM.

As to `Cc1ccc(NC(=O)c2ccc(CN3CCN(C)CC3)cc2)cc1Nc1nccc(-c2cccnc2)n1` [IMATINIB], the IC50 in experiment [1] is > 10 µM.

As to `CCOc1ccc(S(=O)(=O)N2CCNCC2)cc1-c1nnc2c(n1)c(C)nn2C`, the IC50 in experiment [1] was > 25 µM; in experiment [4], > 50 µM; in experiment [5], > 50 µM; in experiment [6] it was > 25 µM. Also, the Ki in experiment [2] was > 10 µM; in experiment [3] it was > 10 µM; in experiment [7] it was 0.616 µM; in experiment [8], 0.0401 µM.

Regarding `CCCc1nn(C)c2nnc(-c3cc(S(=O)(=O)N4CCN(C)CC4)ccc3OCC)nc12`, the concentration for half-maximal inhibition (IC50) is > 25 µM in experiment [1], > 25 µM in experiment [4], > 50 µM in experiment [5] and > 25 µM in experiment [6]. In addition, the Ki was > 10 µM in experiment [2], > 10 µM in experiment [3], 0.629 µM in experiment [7] and 0.0154 µM in experiment [8].

Turning to `CCOc1ccc(S(=O)(=O)N(CC)CC)cc1-c1nnc2c(n1)c(C)nn2C`, the IC50 in experiment [1] is > 25 µM; in experiment [4], > 50 µM; in experiment [5] it was > 50 µM; in experiment [6] it was > 25 µM. In addition, the Ki is > 10 µM in experiment [2], > 10 µM in experiment [3], 0.281 µM in experiment [7] and 0.0424 µM in experiment [8].

Consider `CCOc1ccc(S(=O)(=O)N2CCCCC2)cc1-c1nnc2c(n1)c(C)nn2C`, for which the half-maximal inhibitory concentration (IC50) in experiment [1], in experiment [4], in experiment [5] and in experiment [6] was > 25 µM each time. The inhibition constant (Ki) was > 10 µM in experiment [2], > 10 µM in experiment [3], 0.579 µM in experiment [7] and 0.0281 µM in experiment [8].

On to `CCOc1ccc(S(=O)(=O)NC(C)(C)CO)cc1-c1nnc2c(n1)c(C)nn2C`, for which the IC50 in experiment [1], in experiment [4], in experiment [5] and in experiment [6] was > 100 µM throughout. In addition, the Ki in experiment [2] was > 10 µM; in experiment [3], > 10 µM; in experiment [7], 0.608 µM; in experiment [8], 0.0313 µM.

Consider `CCOc1ccc(S(=O)(=O)N2CCCC2)cc1-c1nnc2c(n1)c(C)nn2C`, for which the IC50 in experiment [1] was > 25 µM; in experiment [4], > 50 µM; in experiment [5], > 50 µM; in experiment [6], > 25 µM. Moreover, the inhibitory constant (Ki) in experiment [2] is > 10 µM; in experiment [3], > 10 µM; in experiment [7], 0.606 µM; in experiment [8], 0.0403 µM.

As to `CCOc1ccc(S(=O)(=O)NCCO)cc1-c1nnc2c(n1)c(C)nn2C`, the IC50 is > 25 µM in experiment [1], > 50 µM in experiment [4], > 50 µM in experiment [5] and > 25 µM in experiment [6]. The inhibitory constant (Ki) was > 10 µM in experiment [2], > 10 µM in experiment [3], 0.0073 µM in experiment [7] and 0.0381 µM in experiment [8].

For `CCOc1ccc(S(=O)(=O)NCCN)cc1-c1nnc2c(n1)c(C)nn2C`, the 50% inhibitory concentration (IC50) was > 25 µM in experiment [1], > 50 µM in experiment [4], > 50 µM in experiment [5] and > 25 µM in experiment [6]. For the same compound, the Ki in experiment [2] is > 10 µM; in experiment [3], > 10 µM; in experiment [7] it was 0.0573 µM; in experiment [8], 0.0334 µM.

Regarding `CCOc1ccc(S(N)(=O)=O)cc1-c1nnc2c(n1)c(C)nn2C`, the inhibition constant (Ki) in experiment [2] was found to be 6.83 µM; in experiment [3], 0.422 µM; in experiment [7] it was 0.0055 µM; in experiment [8], 0.0316 µM.

Regarding `CCOc1ccc(S(=O)(=O)N2CCN(C)CC2)cc1-c1nnc2c(n1)c(C)nn2C`, the 50% inhibitory concentration (IC50) in experiment [1] is > 25 µM; in experiment [4], > 50 µM; in experiment [5], > 50 µM; in experiment [6], > 25 µM. Besides, the inhibition constant Ki in experiment [2] is > 10 µM; in experiment [3], > 10 µM; in experiment [7], 0.636 µM; in experiment [8] it was 0.0377 µM.

With `CCOc1ccc(S(=O)(=O)NCCN2CCOCC2)cc1-c1nnc2c(n1)c(C)nn2C`, the IC50 is > 25 µM in experiment [1], > 50 µM in experiment [4], > 50 µM in experiment [5] and > 25 µM in experiment [6]. Besides, the Ki is > 10 µM in experiment [2], > 10 µM in experiment [3], 0.0595 µM in experiment [7] and 0.0398 µM in experiment [8].

On to `CCCc1nn(C)c2nnc(-c3cc(S(=O)(=O)N4CCNCC4)ccc3OCC)nc12`, for which the Ki was > 10 µM in experiment [2], > 10 µM in experiment [3], 0.0038 µM in experiment [7] and 0.0387 µM in experiment [8].

Take `CCOc1ccc(S(=O)(=O)N2CCOCC2)cc1-c1nnc2c(n1)c(C)nn2C`: the IC50 in experiment [1] is > 25 µM; in experiment [4] it was > 50 µM; in experiment [5], > 50 µM; in experiment [6] it was > 25 µM. Further, the inhibitory constant (Ki) in experiment [2] was > 10 µM; in experiment [3], > 10 µM; in experiment [7] it was 0.0302 µM; in experiment [8], 0.0244 µM.

`CCOc1ccc(S(=O)(=O)NC(C)(CO)CO)cc1-c1nnc2c(n1)c(C)nn2C`: the half-maximal inhibitory concentration (IC50) in experiment [1], in experiment [4], in experiment [5] and in experiment [6] was > 100 µM throughout. The inhibition constant (Ki) in experiment [2] is > 10 µM; in experiment [3] it was > 10 µM; in experiment [7], 0.0409 µM; in experiment [8] it was 0.0326 µM.
